{"source": "patent US4315014A", "about": "“Antibacterial amide compounds and pharmaceutical composition containing the same” (Warner-Lambert Company, priority 1980, dated 1982)", "format_in_all_cases": "cell-based", "key": {"[1]": {"tested_on": "Pseudomonas aeruginosa #28", "experiment": "Minimal Inhibitory Concentration, Pseudomonas aeruginosa #28"}, "Entero. cloacae": {"tested_on": "Entero. cloacae", "experiment": "Minimal Inhibitory Concentration, Entero. cloacae", "conditions": "Enterobacter cloacae"}, "Serr. marces.": {"tested_on": "Serr. marces.", "experiment": "Minimal Inhibitory Concentration, Serr. marces."}, "Klebs. pneu.": {"tested_on": "Klebs. pneu.", "experiment": "Minimal Inhibitory Concentration, Klebs. pneu."}, "Staph. aureus S18713": {"tested_on": "Staph. aureus S18713", "experiment": "Minimal Inhibitory Concentration, Staph. aureus S18713", "conditions": "Staphylococcus aureus"}}}
{"smiles": "CC1(C)S[C@@H]2[C@H](NC(=O)[C@H](NC(=O)c3ccc(-c4cccc(NS(C)(=O)=O)c4)[nH]c3=O)c3ccccc3)C(=O)N2[C@H]1C(=O)O", "note": "[Example 1, N-[6-[3-(Methylsulfonylamino)phenyl]-1,2-dihydro-2-oxonicotinoyl]ampicillin]", "values": [{"measurement": "MIC", "setting": "[1]", "result": 12.5, "unit": "µg/mL"}, {"measurement": "MIC", "setting": "Entero. cloacae", "result": 6.3, "unit": "µg/mL"}, {"measurement": "MIC", "setting": "Serr. marces.", "result": 25, "unit": "µg/mL"}, {"measurement": "MIC", "setting": "Klebs. pneu.", "result": 1.6, "unit": "µg/mL"}, {"measurement": "MIC", "setting": "Staph. aureus S18713", "result": "> 200", "unit": "µg/mL"}]}
{"smiles": "CC1(C)S[C@@H]2[C@H](NC(=O)[C@H](NC(=O)c3ccc(-c4ccc(NS(C)(=O)=O)cc4)[nH]c3=O)c3ccccc3)C(=O)N2[C@H]1C(=O)O", "note": "[Example 2, N-[6-[4-(Methylsulfonylamino)phenyl]-1,2-dihydro-2-oxonicotinoyl]ampicillin]", "values": [{"measurement": "MIC", "setting": "[1]", "result": 3.1, "unit": "µg/mL"}, {"measurement": "MIC", "setting": "Entero. cloacae", "result": 6.3, "unit": "µg/mL"}, {"measurement": "MIC", "setting": "Serr. marces.", "result": 50, "unit": "µg/mL"}, {"measurement": "MIC", "setting": "Klebs. pneu.", "result": 3.1, "unit": "µg/mL"}, {"measurement": "MIC", "setting": "Staph. aureus S18713", "result": 100, "unit": "µg/mL"}]}
{"smiles": "CC1(C)S[C@@H]2[C@H](NC(=O)[C@H](NC(=O)c3ccc(-c4ccc(NS(C)(=O)=O)cc4)[nH]c3=O)c3ccc(O)cc3)C(=O)N2[C@H]1C(=O)O", "note": "[Example 3]", "values": [{"measurement": "MIC", "setting": "[1]", "result": 1.6, "unit": "µg/mL"}, {"measurement": "MIC", "setting": "Entero. cloacae", "result": 3.1, "unit": "µg/mL"}, {"measurement": "MIC", "setting": "Serr. marces.", "result": 100, "unit": "µg/mL"}, {"measurement": "MIC", "setting": "Klebs. pneu.", "result": 3.1, "unit": "µg/mL"}, {"measurement": "MIC", "setting": "Staph. aureus S18713", "result": 100, "unit": "µg/mL"}]}
{"smiles": "CCCS(=O)(=O)Nc1ccc(-c2ccc(C(=O)N[C@@H](C(=O)N[C@@H]3C(=O)N4[C@@H]3SC(C)(C)[C@@H]4C(=O)O)c3ccccc3)c(=O)[nH]2)cc1", "note": "[Example 4, N-[6-[4-(Propylsulfonylamino)phenyl]-1,2-dihydro-2-oxonictinoyl]ampicillin]", "values": [{"measurement": "MIC", "setting": "[1]", "result": 3.1, "unit": "µg/mL"}, {"measurement": "MIC", "setting": "Entero. cloacae", "result": 6.3, "unit": "µg/mL"}, {"measurement": "MIC", "setting": "Serr. marces.", "result": 50, "unit": "µg/mL"}, {"measurement": "MIC", "setting": "Klebs. pneu.", "result": 3.1, "unit": "µg/mL"}, {"measurement": "MIC", "setting": "Staph. aureus S18713", "result": 100, "unit": "µg/mL"}]}
{"smiles": "CC1(C)S[C@@H]2[C@H](NC(=O)[C@H](NC(=O)c3ccc(-c4ccc(NS(=O)(=O)C(F)(F)F)cc4)[nH]c3=O)c3ccccc3)C(=O)N2[C@H]1C(=O)O", "note": "[Example 5, N-[6-[4-(Trifluoromethylsulfonylamino)phenyl]-1,2-dihydro-2-oxonicotinoyl]ampicillin]", "values": [{"measurement": "MIC", "setting": "[1]", "result": 6.3, "unit": "µg/mL"}, {"measurement": "MIC", "setting": "Entero. cloacae", "result": 6.3, "unit": "µg/mL"}, {"measurement": "MIC", "setting": "Serr. marces.", "result": 200, "unit": "µg/mL"}, {"measurement": "MIC", "setting": "Klebs. pneu.", "result": 3.1, "unit": "µg/mL"}, {"measurement": "MIC", "setting": "Staph. aureus S18713", "result": 200, "unit": "µg/mL"}]}
{"smiles": "CC1(C)S[C@@H]2[C@H](NC(=O)[C@H](NC(=O)c3ccc(-c4ccc(NS(=O)(=O)C(F)(F)F)cc4)[nH]c3=O)c3ccc(O)cc3)C(=O)N2[C@H]1C(=O)O", "note": "[Example 6, N[6-[4-(Trifluoromethylsulfonylamino)phenyl]-1,2-dihydro-2-oxonicotinoyl]amoxicillin]", "values": [{"measurement": "MIC", "setting": "[1]", "result": 12.5, "unit": "µg/mL"}, {"measurement": "MIC", "setting": "Entero. cloacae", "result": 6.3, "unit": "µg/mL"}, {"measurement": "MIC", "setting": "Serr. marces.", "result": 50, "unit": "µg/mL"}, {"measurement": "MIC", "setting": "Klebs. pneu.", "result": 25, "unit": "µg/mL"}, {"measurement": "MIC", "setting": "Staph. aureus S18713", "result": 25, "unit": "µg/mL"}]}
{"smiles": "CC(=O)OCCCS(=O)(=O)Nc1ccc(-c2ccc(C(=O)N[C@@H](C(=O)N[C@@H]3C(=O)N4[C@@H]3SC(C)(C)[C@@H]4C(=O)O)c3ccccc3)c(=O)[nH]2)cc1", "note": "[Example 7, N-[6-[4-[3-(acetyloxy)propylsulfonylamino]phenyl]-1,2-dihydro-2-oxonicotinoyl]ampicillin]", "values": [{"measurement": "MIC", "setting": "[1]", "result": 6.3, "unit": "µg/mL"}, {"measurement": "MIC", "setting": "Entero. cloacae", "result": 6.3, "unit": "µg/mL"}, {"measurement": "MIC", "setting": "Serr. marces.", "result": 100, "unit": "µg/mL"}, {"measurement": "MIC", "setting": "Klebs. pneu.", "result": 3.1, "unit": "µg/mL"}, {"measurement": "MIC", "setting": "Staph. aureus S18713", "result": 100, "unit": "µg/mL"}]}
{"smiles": "CC1(C)S[C@@H]2[C@H](NC(=O)[C@H](NC(=O)c3ccc(-c4ccc(NS(=O)(=O)CCc5ccncc5)cc4)[nH]c3=O)c3ccccc3)C(=O)N2[C@H]1C(=O)O", "note": "[Example 8]", "values": [{"measurement": "MIC", "setting": "[1]", "result": 6.3, "unit": "µg/mL"}, {"measurement": "MIC", "setting": "Entero. cloacae", "result": 6.3, "unit": "µg/mL"}, {"measurement": "MIC", "setting": "Serr. marces.", "result": 100, "unit": "µg/mL"}, {"measurement": "MIC", "setting": "Klebs. pneu.", "result": 3.1, "unit": "µg/mL"}, {"measurement": "MIC", "setting": "Staph. aureus S18713", "result": 100, "unit": "µg/mL"}]}
{"smiles": "CC1(C)S[C@@H]2[C@H](NC(=O)[C@H](NC(=O)c3ccc(-c4ccc(NS(=O)(=O)c5cccnc5)cc4)[nH]c3=O)c3ccccc3)C(=O)N2[C@H]1C(=O)O", "note": "[Example 9, N-[6-[4-(3-pyridinylsulfonylamino)phenyl]-1,2-dihydro-2-oxonicotinoyl]ampicillin]", "values": [{"measurement": "MIC", "setting": "[1]", "result": 12.5, "unit": "µg/mL"}, {"measurement": "MIC", "setting": "Entero. cloacae", "result": 12.5, "unit": "µg/mL"}, {"measurement": "MIC", "setting": "Serr. marces.", "result": 100, "unit": "µg/mL"}, {"measurement": "MIC", "setting": "Klebs. pneu.", "result": 6.3, "unit": "µg/mL"}, {"measurement": "MIC", "setting": "Staph. aureus S18713", "result": 100, "unit": "µg/mL"}]}
{"smiles": "CC1(C)S[C@@H]2[C@H](NC(=O)[C@H](NC(=O)c3ccc(-c4cccc(NS(=O)(=O)c5cccnc5)c4)[nH]c3=O)c3ccccc3)C(=O)N2[C@H]1C(=O)O", "note": "[Example 10, N-[6-[3-(3-pyridinylsulfonylamino)phenyl]-1,2-dihydro-2-oxonicotinoyl]ampicillin]", "values": [{"measurement": "MIC", "setting": "[1]", "result": 12.5, "unit": "µg/mL"}, {"measurement": "MIC", "setting": "Entero. cloacae", "result": 12.5, "unit": "µg/mL"}, {"measurement": "MIC", "setting": "Serr. marces.", "result": 100, "unit": "µg/mL"}, {"measurement": "MIC", "setting": "Klebs. pneu.", "result": 6.3, "unit": "µg/mL"}, {"measurement": "MIC", "setting": "Staph. aureus S18713", "result": "> 200", "unit": "µg/mL"}]}
